Measured values reported in patent US10112918B2, “15-oxospiramilactone derivatives, preparation method and uses thereof” (Kunming Institute of Botany, The Chinese Academy of Sciences, priority 2013, dated 2018).
Like-named read-outs stand apart in the source and are kept apart here.

Key:
Type in all cases: cell-based
[1] = test system: HL-60 (human promyelocytic leukemia cells); test: MTT inhibition of tumor cell growth, HL-60; conditions: Homo sapiens, HL-60, 48 h
How it was run: (§1)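 Compound exposure lasts 48 h at 37° C on cells plated at 5000-10000 per well in serum-containing medium. Viability is read by MTT reduction at 595 nm, and IC50 is computed with the two-point Reed and Muench method.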

[2] = test system: SMMC-7721 (human hepatoma cells); test: MTT inhibition of tumor cell growth, SMMC-7721; conditions: Homo sapiens, SMMC-7721, 48 h
How it was run: as §1

[3] = test system: MCF-7 (human breast cancer cells); test: MTT inhibition of tumor cell growth, MCF-7; conditions: Homo sapiens, MCF7, 48 h
How it was run: as §1

[4] = test system: SW-480 (human colon cancer cells); test: MTT inhibition of tumor cell growth, SW-480; conditions: Homo sapiens, SW480, 48 h
How it was run: as §1

[5] = test system: Wnt signaling pathway (Top-Flash reporter gene); test: Top-Flash Wnt reporter gene assay in HEK293T cells with Wnt3a conditioned medium
How it was run: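 HEK293T transfected with TOP-flash (5 ng/well) plus GFP plasmid for normalization, then treated 6 h with mouse Wnt3a conditioned medium from L cells, with or without compound. GFP-normalized luciferase minus DMSO-only background, scaled to Wnt-induced activity; IC50 at 0.5 relative residual activity from 4-parameter logistic fit.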

[6] = Table 1, 7-hydroxy derivatives of S-3
[7] = Table 2, derivatives having potential Michael reaction acceptor
[8] = Table 3, single Michael reaction acceptor, modified lactonic ring
[9] = Table 4, derivatives obtained by reduction of the lactonic ring
[10] = Table 5, derivatives having double Michael reaction acceptor
[11] = Table 7 (first), alkaloid derivatives

IC50 [1, 6]: 6.36 µM
IC50 [1, 7]: 6.36 µM
IC50 [1, 8]: 6.36 µM
IC50 [1, 9]: 6.36 µM
IC50 [1, 10]: 6.36 µM
IC50 [1, 11]: 6.36 µM
IC50 [2, 6]: 3.96 µM
IC50 [2, 7]: 3.96 µM
IC50 [2, 8]: 3.96 µM
IC50 [2, 9]: 3.96 µM
IC50 [2, 10]: 3.96 µM
IC50 [2, 11]: 3.96 µM
IC50 [3, 6]: 3.25 µM
IC50 [3, 7]: 3.25 µM
IC50 [3, 8]: 3.25 µM
IC50 [3, 9]: 3.25 µM
IC50 [3, 10]: 3.25 µM
IC50 [3, 11]: 3.25 µM
IC50 ([4]; Table 1, 7-hydroxy derivatives of S-3, read-out: IC50 SW-480): 3.58 µM
IC50 ([4]; Table 2, derivatives having potential Michael reaction acceptor, read-out: IC50 SW-480): 3.58 µM
IC50 ([4]; Table 3, single Michael reaction acceptor, modified lactonic ring, read-out: IC50 SW-480): 3.58 µM
IC50 ([4]; Table 4, derivatives obtained by reduction of the lactonic ring, read-out: IC50 SW-480): 3.58 µM
IC50 ([4]; Table 5, derivatives having double Michael reaction acceptor, read-out: IC50 SW-480): 3.58 µM
IC50 ([4]; Table 6, 7-hydroxyl derivatives and controls, read-out: IC50 SW-480, 7-hydroxyl derivatives): 2.99 µM
IC50 ([4]; Table 7 (first), alkaloid derivatives, read-out: IC50 SW-480): 3.58 µM
IC50 ([5]; Homo sapiens, HEK-293T, 6 h, Table 7 (second), derivatives modified on 7-hydroxyl of S-3, HEK293T, Wnt3a conditioned medium, 6 h, read-out: IC50 (μM), inhibitory activity on the Wnt signaling pathway): 18.4 ± 1.82 µM
IC50 ([5]; Homo sapiens, HEK-293T, 6 h, Table 8, HEK293T, Wnt3a conditioned medium, 6 h, read-out: IC50 (μM), inhibitory activity on the Wnt signaling pathway): 18.7 ± 0.58 µM
IC50 ([5]; Homo sapiens, HEK-293T, 6 h, Table 9, HEK293T, Wnt3a conditioned medium, 6 h, read-out: IC50(μM), inhibitory activity on the Wnt signaling pathway): 18 ± 0.28 µM
IC50 ([5]; Homo sapiens, HEK-293T, 6 h, Table 10, HEK293T, Wnt3a conditioned medium, 6 h, read-out: IC50 (μM), inhibitory activity on the Wnt signaling pathway): 13.9 ± 2.01 µM
IC50 ([5]; Homo sapiens, HEK-293T, 6 h, Table 11, HEK293T, Wnt3a conditioned medium, 6 h, read-out: IC50 (μM), inhibitory activity on the Wnt signaling pathway): 22.5 ± 0.56 µM
IC50 ([5]; Homo sapiens, HEK-293T, footnotes of Tables 8 and 9: S-3 control in the run of the compounds marked a or b, read-out: corresponding IC50 value of S-3 (Wnt signaling pathway)): 18.4 µM
IC50 ([5]; footnotes of Tables 8 and 9: S-3 control in the run of the compounds marked a or b, listed as S-3, read-out: corresponding IC50 value of S-3 (Wnt signaling pathway)): 15.3 µM
Compound: C=C1C(=O)[C@]23CC[C@H]1CC2[C@@]12CCC[C@@](C)(COC1=O)C2C[C@H]3O (some centres unmarked) [Compound 1, 15-oxospiramilactone]
